Measurements taken from patent publication US20250034216A1, “STEREOSELECTIVE COVALENT LIGANDS FOR ONCOGENIC AND IMMUNOLOGICAL PROTEINS” (The Scripps Research Institute, priority 2021, published 2025).

Legend:
Experiment in all cases: IA-DTB cysteine engagement
Format in all cases: binding
Conditions in all cases: 22Rv1 cells, 20 μM probe, 1 h, relative to DMSO
CUL5_C112 = molecular target: T1, CUL5_C112 (Homo sapiens, UniProt Q93034)
T1 construct: endogenous in cells; host or cells: 22Rv1
T1 sequence (Q93034 1-780): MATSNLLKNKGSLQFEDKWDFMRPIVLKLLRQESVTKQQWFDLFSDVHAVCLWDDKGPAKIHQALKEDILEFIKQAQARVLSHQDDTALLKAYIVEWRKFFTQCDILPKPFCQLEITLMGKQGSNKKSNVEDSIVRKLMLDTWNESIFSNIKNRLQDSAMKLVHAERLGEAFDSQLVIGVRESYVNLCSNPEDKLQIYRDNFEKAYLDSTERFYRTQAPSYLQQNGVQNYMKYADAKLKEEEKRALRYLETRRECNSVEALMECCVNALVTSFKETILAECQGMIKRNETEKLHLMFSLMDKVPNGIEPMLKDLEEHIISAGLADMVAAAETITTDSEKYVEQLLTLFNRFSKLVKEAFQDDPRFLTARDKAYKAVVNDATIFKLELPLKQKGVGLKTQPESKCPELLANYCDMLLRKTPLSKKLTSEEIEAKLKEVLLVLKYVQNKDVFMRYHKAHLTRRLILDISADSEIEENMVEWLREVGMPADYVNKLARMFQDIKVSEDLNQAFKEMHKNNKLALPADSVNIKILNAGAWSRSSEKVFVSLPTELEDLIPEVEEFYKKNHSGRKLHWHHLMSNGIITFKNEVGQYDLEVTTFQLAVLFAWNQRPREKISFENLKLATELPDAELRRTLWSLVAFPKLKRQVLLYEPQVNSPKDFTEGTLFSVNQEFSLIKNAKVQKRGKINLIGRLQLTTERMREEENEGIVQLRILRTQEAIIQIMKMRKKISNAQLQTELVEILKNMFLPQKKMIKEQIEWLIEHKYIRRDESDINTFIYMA
Outline: (§1)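 In-situ probe treatment of cells; lysate 2 mg/mL, IA-DTB 1 h RT; MeOH/CHCl3 precipitation, DTT/iodoacetamide, trypsin; streptavidin enrichment; TMT labeling, high-pH fractionation. Ratio = TMT reporter intensity / mean DMSO channels, median-normalized.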

EPB42_C586 = molecular target: T2, EPB42_C586 (Homo sapiens, UniProt P16452)
T2 construct: endogenous in cells; host or cells: 22Rv1
T2 sequence (P16452 1-691): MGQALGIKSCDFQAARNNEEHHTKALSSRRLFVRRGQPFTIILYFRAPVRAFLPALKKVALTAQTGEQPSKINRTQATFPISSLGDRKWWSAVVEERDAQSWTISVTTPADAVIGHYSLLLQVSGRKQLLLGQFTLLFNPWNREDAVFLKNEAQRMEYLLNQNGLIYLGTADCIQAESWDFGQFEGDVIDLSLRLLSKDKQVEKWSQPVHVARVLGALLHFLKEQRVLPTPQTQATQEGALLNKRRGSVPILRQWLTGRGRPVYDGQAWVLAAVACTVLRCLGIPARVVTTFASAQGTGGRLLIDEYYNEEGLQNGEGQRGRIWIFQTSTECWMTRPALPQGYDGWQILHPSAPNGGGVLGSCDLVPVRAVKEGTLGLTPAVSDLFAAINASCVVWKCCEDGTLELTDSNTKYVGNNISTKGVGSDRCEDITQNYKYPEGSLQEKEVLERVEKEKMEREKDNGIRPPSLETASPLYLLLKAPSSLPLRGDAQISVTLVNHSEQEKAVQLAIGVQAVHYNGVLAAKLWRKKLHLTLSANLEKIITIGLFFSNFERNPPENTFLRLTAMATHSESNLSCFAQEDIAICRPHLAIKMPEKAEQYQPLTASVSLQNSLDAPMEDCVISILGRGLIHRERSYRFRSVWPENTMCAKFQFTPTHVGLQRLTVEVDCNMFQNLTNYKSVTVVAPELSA
Outline: as §1

UBR5_C2094 = molecular target: T3, UBR5_C2094 (Homo sapiens, UniProt O95071)
T3 construct: endogenous in cells; host or cells: 22Rv1
T3 sequence (O95071 whole entry): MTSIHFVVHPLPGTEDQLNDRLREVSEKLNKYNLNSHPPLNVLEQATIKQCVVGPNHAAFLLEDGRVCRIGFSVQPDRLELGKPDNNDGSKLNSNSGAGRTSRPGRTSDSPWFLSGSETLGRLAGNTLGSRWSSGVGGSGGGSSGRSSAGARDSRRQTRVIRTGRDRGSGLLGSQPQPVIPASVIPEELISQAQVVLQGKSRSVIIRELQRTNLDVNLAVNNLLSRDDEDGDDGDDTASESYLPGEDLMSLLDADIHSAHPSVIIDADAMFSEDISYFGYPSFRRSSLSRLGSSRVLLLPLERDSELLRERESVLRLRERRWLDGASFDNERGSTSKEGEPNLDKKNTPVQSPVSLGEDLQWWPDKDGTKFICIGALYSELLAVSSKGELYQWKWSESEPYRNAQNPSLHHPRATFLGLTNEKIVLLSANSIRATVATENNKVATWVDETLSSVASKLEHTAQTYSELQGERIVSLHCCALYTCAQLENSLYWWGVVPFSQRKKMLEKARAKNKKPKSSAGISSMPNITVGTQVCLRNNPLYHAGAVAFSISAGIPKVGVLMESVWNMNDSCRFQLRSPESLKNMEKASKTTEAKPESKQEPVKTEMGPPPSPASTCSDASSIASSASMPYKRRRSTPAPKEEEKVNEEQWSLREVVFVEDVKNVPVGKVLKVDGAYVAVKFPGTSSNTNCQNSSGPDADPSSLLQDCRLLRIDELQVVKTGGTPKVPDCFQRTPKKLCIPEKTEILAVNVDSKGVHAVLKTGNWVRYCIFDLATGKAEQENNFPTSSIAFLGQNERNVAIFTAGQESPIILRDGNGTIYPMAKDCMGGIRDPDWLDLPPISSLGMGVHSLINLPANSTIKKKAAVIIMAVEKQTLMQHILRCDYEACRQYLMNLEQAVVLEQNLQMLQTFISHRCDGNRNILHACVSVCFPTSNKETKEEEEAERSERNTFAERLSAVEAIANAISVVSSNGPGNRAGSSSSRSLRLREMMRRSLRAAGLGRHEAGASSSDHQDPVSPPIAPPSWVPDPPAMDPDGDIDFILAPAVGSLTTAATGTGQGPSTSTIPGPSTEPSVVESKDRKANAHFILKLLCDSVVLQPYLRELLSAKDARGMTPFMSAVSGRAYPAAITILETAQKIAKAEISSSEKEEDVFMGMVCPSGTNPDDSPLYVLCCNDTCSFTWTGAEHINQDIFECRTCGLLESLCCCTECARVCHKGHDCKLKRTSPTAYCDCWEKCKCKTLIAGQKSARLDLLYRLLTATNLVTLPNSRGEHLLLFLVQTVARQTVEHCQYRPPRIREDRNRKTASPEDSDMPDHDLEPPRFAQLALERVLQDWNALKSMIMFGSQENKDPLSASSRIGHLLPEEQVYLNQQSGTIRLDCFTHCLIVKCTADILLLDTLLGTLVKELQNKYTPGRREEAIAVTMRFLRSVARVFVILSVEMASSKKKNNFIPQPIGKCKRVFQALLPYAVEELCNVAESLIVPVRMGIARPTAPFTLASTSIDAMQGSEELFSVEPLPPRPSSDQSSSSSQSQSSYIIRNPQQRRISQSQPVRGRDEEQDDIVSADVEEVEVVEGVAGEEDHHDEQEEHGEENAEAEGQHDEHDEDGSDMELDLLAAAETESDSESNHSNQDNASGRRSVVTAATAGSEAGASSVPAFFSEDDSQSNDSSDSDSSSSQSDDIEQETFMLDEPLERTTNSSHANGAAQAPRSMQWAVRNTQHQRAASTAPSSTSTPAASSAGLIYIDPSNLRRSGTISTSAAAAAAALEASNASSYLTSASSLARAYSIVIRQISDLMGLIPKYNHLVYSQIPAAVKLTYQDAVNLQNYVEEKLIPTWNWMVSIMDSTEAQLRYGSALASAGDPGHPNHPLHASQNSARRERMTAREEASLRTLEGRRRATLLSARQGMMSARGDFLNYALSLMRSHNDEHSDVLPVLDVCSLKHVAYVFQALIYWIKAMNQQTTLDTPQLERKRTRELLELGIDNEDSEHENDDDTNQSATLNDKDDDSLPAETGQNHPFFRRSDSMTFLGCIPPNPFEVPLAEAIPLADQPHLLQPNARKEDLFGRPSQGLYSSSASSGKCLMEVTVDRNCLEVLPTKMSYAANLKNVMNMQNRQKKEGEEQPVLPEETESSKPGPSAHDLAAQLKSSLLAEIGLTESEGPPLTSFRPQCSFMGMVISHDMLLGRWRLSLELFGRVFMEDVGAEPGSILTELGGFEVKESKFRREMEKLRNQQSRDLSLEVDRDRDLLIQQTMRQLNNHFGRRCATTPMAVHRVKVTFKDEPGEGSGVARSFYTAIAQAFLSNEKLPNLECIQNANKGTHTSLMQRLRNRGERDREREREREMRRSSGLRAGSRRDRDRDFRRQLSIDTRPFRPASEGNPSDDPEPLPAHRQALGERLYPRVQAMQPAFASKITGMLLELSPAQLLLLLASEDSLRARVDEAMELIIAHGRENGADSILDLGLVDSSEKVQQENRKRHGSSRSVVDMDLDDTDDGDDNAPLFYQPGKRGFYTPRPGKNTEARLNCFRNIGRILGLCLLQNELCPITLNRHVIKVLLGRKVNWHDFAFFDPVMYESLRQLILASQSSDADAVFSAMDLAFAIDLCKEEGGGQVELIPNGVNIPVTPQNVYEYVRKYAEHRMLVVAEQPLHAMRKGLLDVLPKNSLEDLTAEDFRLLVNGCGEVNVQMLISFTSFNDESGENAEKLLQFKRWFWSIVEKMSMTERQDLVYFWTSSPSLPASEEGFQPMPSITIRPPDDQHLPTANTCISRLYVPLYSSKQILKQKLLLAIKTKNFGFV
Outline: as §1

% engagement CUL5_C112 (CUL5_C112)	% engagement EPB42_C586 (EPB42_C586)	% engagement UBR5_C2094 (UBR5_C2094)	SMILES
−20%	43.5%	81%	C=CC(=O)N1C[C@H](c2ccc(Br)cc2)[C@H]1C(=O)Nc1cccc2cccnc12 [MY-3B, (2S,3S)-1-acryloyl-3-(4-bromophenyl)-N-(quinolin-8-yl)azetidine-2-carboxamide]
11%	33.5%	40.5%	C=CC(=O)N1C[C@H](c2ccc(Br)cc2)[C@@H]1C(=O)Nc1cccc2cccnc12 [MY-1B, (2R,3S)-1-acryloyl-3-(4-bromophenyl)-N-(quinolin-8-yl)azetidine-2-carboxamide]
−14.75%	66.5%	22.5%	C=CC(=O)N1C[C@H](c2ccc(Br)cc2)[C@H]1C(=O)Nc1cccc2cccnc12 [MY-3A, (2S,3S)-1-acryloyl-3-(4-bromophenyl)-N-(quinolin-8-yl)azetidine-2-carboxamide]
95.5%	55%	23%	C=CC(=O)N1C[C@@H](c2ccc(Br)cc2)[C@H]1C(=O)Nc1cccc2cccnc12 [MY-1A, (2S,3R)-1-acryloyl-3-(4-bromophenyl)-N-(quinolin-8-yl)azetidine-2-carboxamide]
